The values below come from article PMC7552917, “Systematic exploration of different E3 ubiquitin ligases: an approach towards potent and selective CDK6 degraders” (Chemical Science, 2020).

Read-outs that look alike come from different tables or passages of the source. A value given as a limit tells only on which side of the number the result lay.

For one data set, the target named is T1, IKZF1 (Homo sapiens, UniProt Q13422+Q96SW2).
T1 construct: endogenous in cells; host or cells: MM.1S (human multiple myeloma)
T1 sequence (Q13422 whole entry): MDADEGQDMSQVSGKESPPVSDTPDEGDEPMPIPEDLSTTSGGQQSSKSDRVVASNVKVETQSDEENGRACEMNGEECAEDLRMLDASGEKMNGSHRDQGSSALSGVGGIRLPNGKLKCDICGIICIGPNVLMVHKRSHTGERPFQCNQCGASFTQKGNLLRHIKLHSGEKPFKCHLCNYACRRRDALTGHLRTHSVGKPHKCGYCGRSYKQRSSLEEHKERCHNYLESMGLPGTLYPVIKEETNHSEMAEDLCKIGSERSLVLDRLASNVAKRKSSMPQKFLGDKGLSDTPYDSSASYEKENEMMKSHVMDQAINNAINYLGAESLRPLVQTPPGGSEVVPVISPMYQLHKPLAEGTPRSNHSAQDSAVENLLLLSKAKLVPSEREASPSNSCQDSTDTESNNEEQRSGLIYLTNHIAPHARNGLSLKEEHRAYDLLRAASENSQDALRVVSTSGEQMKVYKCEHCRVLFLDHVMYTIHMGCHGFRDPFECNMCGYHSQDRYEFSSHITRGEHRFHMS
T1 sequence (Q96SW2 whole entry): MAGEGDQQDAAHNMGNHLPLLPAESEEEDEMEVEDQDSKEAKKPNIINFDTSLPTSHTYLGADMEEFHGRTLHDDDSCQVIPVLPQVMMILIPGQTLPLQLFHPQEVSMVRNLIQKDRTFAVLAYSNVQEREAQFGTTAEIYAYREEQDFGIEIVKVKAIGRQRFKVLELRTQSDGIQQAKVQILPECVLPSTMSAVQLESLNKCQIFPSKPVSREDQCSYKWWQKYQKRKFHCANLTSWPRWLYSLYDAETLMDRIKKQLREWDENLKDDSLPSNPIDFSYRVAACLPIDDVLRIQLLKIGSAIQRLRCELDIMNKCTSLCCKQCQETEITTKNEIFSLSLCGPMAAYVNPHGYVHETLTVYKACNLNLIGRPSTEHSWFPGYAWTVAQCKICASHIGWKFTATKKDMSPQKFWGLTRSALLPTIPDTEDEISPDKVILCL
T1 sequence (Q16531 whole entry partner): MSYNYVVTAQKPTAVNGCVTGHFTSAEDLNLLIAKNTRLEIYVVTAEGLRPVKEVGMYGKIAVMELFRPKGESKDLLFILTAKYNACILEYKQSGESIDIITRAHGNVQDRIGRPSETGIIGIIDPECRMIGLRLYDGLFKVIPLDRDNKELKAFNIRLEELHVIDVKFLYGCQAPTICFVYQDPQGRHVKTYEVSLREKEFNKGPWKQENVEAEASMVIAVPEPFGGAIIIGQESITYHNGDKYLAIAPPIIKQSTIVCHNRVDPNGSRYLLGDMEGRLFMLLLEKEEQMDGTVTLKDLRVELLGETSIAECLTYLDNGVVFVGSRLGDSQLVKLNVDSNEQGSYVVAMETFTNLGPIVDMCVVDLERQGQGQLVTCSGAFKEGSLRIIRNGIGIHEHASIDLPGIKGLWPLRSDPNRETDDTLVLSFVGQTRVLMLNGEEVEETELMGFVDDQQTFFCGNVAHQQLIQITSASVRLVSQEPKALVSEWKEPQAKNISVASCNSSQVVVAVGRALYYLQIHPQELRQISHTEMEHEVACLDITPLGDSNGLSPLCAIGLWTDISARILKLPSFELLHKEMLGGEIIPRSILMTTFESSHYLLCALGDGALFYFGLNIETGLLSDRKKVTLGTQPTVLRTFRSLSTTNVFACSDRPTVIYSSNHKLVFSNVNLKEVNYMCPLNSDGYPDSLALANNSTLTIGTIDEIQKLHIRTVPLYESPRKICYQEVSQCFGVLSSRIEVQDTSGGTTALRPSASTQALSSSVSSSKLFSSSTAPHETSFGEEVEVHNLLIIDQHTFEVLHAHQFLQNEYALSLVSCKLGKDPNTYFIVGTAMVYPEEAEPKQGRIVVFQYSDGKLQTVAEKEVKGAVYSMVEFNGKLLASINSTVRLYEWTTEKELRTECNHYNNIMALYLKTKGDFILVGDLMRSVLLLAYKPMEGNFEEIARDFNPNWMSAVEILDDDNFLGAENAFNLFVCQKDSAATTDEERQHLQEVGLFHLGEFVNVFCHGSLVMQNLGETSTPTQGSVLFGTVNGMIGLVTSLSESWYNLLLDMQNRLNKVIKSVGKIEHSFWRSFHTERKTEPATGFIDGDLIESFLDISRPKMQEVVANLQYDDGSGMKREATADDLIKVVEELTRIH
In words: Neosubstrate IKZF1 degradation, western blot of MM.1S cells.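 On all read-outs here: test concentration 0.1 µM.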 The settings on record: 16 h, normalized to DMSO (100%); for remaining activity at 0.1 µM: MM1.S, read-out: D IKZF1: remaining IKZF1 levels. The data set is classed as cell-based. The text has this:
(§1) We determined the concentration of both kinases and CRBN, the latter in order to control the expression of the corresponding ligase. Since IMiDs, such as pomalidomide, cause the degradation of the lymphoid transcription factors Ikaros (IKZF1) and Aiolos (IKZF3) through the involvement of CRBN,[53],[54] this undesired effect was inspected. […] As further characteristics of CDK4/6d, the desired selectivity of CDK6 over CDK4 degradation and the unwanted influence on the IKZF1 concentration were determined. […] Next, we determined the concentration- and time-dependent activity of 11 (Fig. S2, ESI ^†).
(§2) Multiple myeloma, leukaemia, and murine cell lines:
(§3) After respective designated treatments, cells were washed with 1× PBS and lysed in IP lysis buffer (Pierce) containing HALT protease and phosphatase inhibitor cocktail (Thermo Scientific). Sodium dodecyl sulfate-polyacrylamide gel electrophoresis (SDS-PAGE) was performed with 5–20 µg of protein loaded per sample. Gel electrophoresis was carried out at a constant voltage. Proteins were transferred onto Immobilon-P transfer membranes (Millipore). Membranes were blocked with 5% milk in Tris Buffered Saline with 0.05% Tween 20 (TBS-T) followed by overnight incubation at 4 °C with shaking in primary antibodies diluted in 5% BSA in TBS-T. After incubation with respective secondary HRP-conjugated antibodies diluted in 5% milk in TBST, detection of proteins was performed using either WesternBright ECL HRP substrate or WesternBright Sirius HRP substrate (Advansta). Chemiluminescence was detected with ChemiDoc™ XRS+ System (Bio-Rad). For further detection of other proteins on the same membrane, membranes were subjected to incubation in Restore Western Blot Stripping Buffer, followed by re-blocking, and further probing of proteins was […]

The target in another data set is T2, CDK4 (Homo sapiens, UniProt P11802).
T2 construct: Percentage values are normalized to DMSO-treated MM.1S cells and the respective loading controls; endogenous in cells; host or cells: MM.1S (human multiple myeloma)
T2 sequence (P11802 whole entry): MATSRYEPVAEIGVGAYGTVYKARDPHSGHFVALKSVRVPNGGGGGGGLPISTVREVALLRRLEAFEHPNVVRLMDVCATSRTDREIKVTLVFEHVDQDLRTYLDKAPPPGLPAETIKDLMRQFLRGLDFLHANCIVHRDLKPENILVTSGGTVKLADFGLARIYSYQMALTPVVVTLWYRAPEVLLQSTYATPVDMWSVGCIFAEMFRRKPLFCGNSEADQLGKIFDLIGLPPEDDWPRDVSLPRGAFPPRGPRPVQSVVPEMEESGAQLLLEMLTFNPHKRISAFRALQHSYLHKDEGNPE
In words: CDK4 degradation, western blot of MM.1S cells. As to conditions: 16 h; for Effect of MDM2 ligands on CDK4 levels: indicated concentrations. The class given is cell-based.
Description: as §1, §2, §3

Another data set addresses T3, CDK6 (Homo sapiens, UniProt Q00534).
T3 construct: Percentage values are normalized to DMSO-treated MM.1S cells and the respective loading controls; endogenous in cells; host or cells: MM.1S (human multiple myeloma)
In words: CDK6 degradation, western blot of MM.1S cells. The class given is cell-based. As to conditions: 16 h.
Description: as §1, §2, §3

Data set [1] in a line: elog D7.4 by chromatographic (HPLC) method. The class given is physicochemical. As to conditions: Polaris C18-A column, pH 7.4, read-out: elog D7.4 (experimental distribution coefficient at pH 7.4). On the procedure:
Supplementary Information: Physical Chemistry
N. Molecular Descriptor Calculation […]
O. Physicochemical Measurements
The determination of the elog D7.4 values was performed by a chromatographic method according to […]
The column was a Polaris C18-A column (2 mm I.D., 50 mm length, 3 μm particle size) from Agilent Technologies. A linear mobile phase gradient was applied with […] TRIS buffer adjusted to pH 7.4 and MeCN. Therefore, the gradient was run from 5% […]
between the runs with a constant flow-rate of 0.8 ml/min and a temperature of 25 °C. The output wavelength of the detector was set to 269.5 nm. In order to calibrate the log D7.4 to the retention time, 6 different drugs with known log D7.4 were dissolved in DMSO and 10 µl were injected […]
Approximately 1 mg of the samples was dissolved in DMSO and 5 µl were injected. Analyses were conducted in duplicates. Subsequently, the mean retention times of the analytes were taken to calculate their log D7.4 values with aid of the calibration line.

The mark [2] stands for this setting: MM1.S, 0.1 μM, MM.1S cells, normalized to DMSO (100%), read-out: D CDK4: remaining CDK4 levels.
[3] abbreviates: MM1.S, 0.1 μM, MM.1S cells, normalized to DMSO (100%), read-out: D CDK6: remaining CDK6 levels.
Where [4] appears, read: 1 μM, MM.1S cells, normalized to DMSO (100%).

T3 sequence (Q00534 whole entry): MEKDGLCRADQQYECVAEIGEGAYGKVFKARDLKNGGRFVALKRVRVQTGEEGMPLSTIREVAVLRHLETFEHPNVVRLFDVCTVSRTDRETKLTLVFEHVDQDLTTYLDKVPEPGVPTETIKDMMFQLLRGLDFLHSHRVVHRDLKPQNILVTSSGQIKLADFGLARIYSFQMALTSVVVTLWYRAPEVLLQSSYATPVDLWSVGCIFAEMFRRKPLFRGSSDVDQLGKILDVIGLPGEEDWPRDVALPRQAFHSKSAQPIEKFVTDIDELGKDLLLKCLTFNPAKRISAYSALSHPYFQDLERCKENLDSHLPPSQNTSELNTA

With `Nc1cccc2c1C(=O)N(C1CCC(=O)NC1=O)C2=O` (centres unmarked) [3 (POM), pomalidomide, reference compound], the “D IKZF1: remaining IKZF1 levels” value on IKZF1 (0.1 μM) turned out to be 17%. The remaining activity at 0.1 µM at CDK4 (setting [2]) and on CDK6 (setting [3]) was 91% in each case.

Take `COc1cc(C(=O)O)ccc1NC(=O)[C@@H]1N[C@@H](CC(C)(C)C)[C@](C#N)(c2ccc(Cl)cc2F)[C@H]1c1cccc(Cl)c1F` [6 (Idasanutlin), idasanutlin, reference compound]: the remaining activity at 0.1 µM at CDK4 (setting [2]) worked out at 78%; at CDK6 (setting [3]), 83%. Further, the remaining activity at 1 µM on CDK4 (MM1.S, 1 μM, MM.1S cells, normalized to DMSO (100%), read-out: D CDK4: remaining CDK4 levels) was 40%; at CDK6 (MM1.S, 1 μM, MM.1S cells, normalized to DMSO (100%), read-out: D CDK6: remaining CDK6 levels), 70%. Moreover, at CDK4 (MM.1S cells), the “Effect of MDM2 ligands on CDK4 levels” value was “dose-dependent effects on CDK4 levels”. Further, the “Selectivity ratio D CDK4/D CDK6 for the degradation of CDK6 over CDK4” value (from here on “Selectivity ratio D CDK4/D CDK6”) at CDK6 (0.1 μM, MM.1S cells) was determined as 0.9.

As for `CC(C)[C@@H](CS(=O)(=O)C(C)C)N1C(=O)[C@@](C)(CC(=O)O)C[C@H](c2cccc(Cl)c2)[C@H]1c1ccc(Cl)cc1` [AMG232, reference compound], the “Effect of MDM2 ligands on CDK4 levels” value on CDK4 (MM.1S cells) was “diminished CDK4 levels in a dose-dependent manner”.

On to `CC(=O)c1c(C)c2cnc(Nc3ccc(N4CCN(C(=O)CCCCCOCCCCOCCCCOCCCCNc5cccc6c5C(=O)N(C5CCC(=O)NC5=O)C6=O)CC4)cn3)nc2n(C2CCCC2)c1=O` (centres unmarked) [compound 18], for which the chromatographic logD in data set [1] amounted to 4.4. The results for the remaining activity at 0.1 µM on IKZF1, on CDK4 (setting [2]) and on CDK6 (setting [3]) were 5.9%, 57% and 17%, respectively. Moreover, the “Selectivity ratio D CDK4/D CDK6” value on CDK6 (0.1 μM, MM.1S cells) is reported as 3.4.

In the case of `CC(=O)c1c(C)c2cnc(Nc3ccc(N4CCN(CCCCCCCCOc5cc(-c6scnc6C)ccc5CNC(=O)[C@@H]5C[C@@H](O)CN5C(=O)[C@H](C(C)C)N5Cc6ccccc6C5=O)CC4)cn3)nc2n(C2CCCC2)c1=O` [compound 28], the chromatographic logD in data set [1] was found to be 4.5. The remaining activity at 0.1 µM on CDK4 (setting [2]) was over 95%; on CDK6 (setting [3]), 62%.

Consider `CC(=O)c1c(C)c2cnc(Nc3ccc(N4CCN(C(=O)CCCCOCCOCCOCCNc5cccc6c5C(=O)N(C5CCC(=O)NC5=O)C6=O)CC4)cn3)nc2n(C2CCCC2)c1=O` (centres unmarked) [compound 14], for which the chromatographic logD in data set [1] was 3.1. In addition, the remaining activity at 0.1 µM at IKZF1 is 0.8%; on CDK4 (setting [2]), 26%; at CDK6 (setting [3]), 7.8%. In addition, the “Selectivity ratio D CDK4/D CDK6” value at CDK6 (0.1 μM, MM.1S cells) is 3.3.

Regarding `CC(=O)c1c(C)c2cnc(Nc3ccc(N4CCN(CCOCCOCC(=O)N[C@H](C(=O)N5C[C@H](O)C[C@H]5C(=O)NCc5ccc(-c6scnc6C)cc5)C(C)(C)C)CC4)cn3)nc2n(C2CCCC2)c1=O` [compound 23], the chromatographic logD in data set [1] stood at 2.7. Further, the remaining activity at 0.1 µM stood at 61% at CDK4 (setting [2]) and 8.2% at CDK6 (setting [3]). The “Selectivity ratio D CDK4/D CDK6” value at CDK6 (0.1 μM, MM.1S cells) is 7.4.

`CC(=O)c1c(C)c2cnc(Nc3ccc(N4CCN(CCOCCOCCOCC(=O)N[C@H](C(=O)N5C[C@H](O)C[C@H]5C(=O)NCc5ccc(-c6scnc6C)cc5)C(C)(C)C)CC4)cn3)nc2n(C2CCCC2)c1=O` [compound 24]: the chromatographic logD in data set [1] is 3.5. Moreover, the remaining activity at 0.1 µM came out at 80% on CDK4 (setting [2]) and 14% on CDK6 (setting [3]). In addition, the “Selectivity ratio D CDK4/D CDK6” value on CDK6 (0.1 μM, MM.1S cells) was 5.7.

For the compound `CC(=O)c1c(C)c2cnc(Nc3ccc(N4CCN(CCCCCCOCCCCCOCCCCC(=O)N[C@H](C(=O)N5C[C@H](O)C[C@H]5C(=O)NCc5ccc(-c6scnc6C)cc5)C(C)(C)C)CC4)cn3)nc2n(C2CCCC2)c1=O` [compound 25], the chromatographic logD in data set [1] is 4.8. The remaining activity at 0.1 µM was over 95% on CDK4 (setting [2]) and 40% at CDK6 (setting [3]).

Regarding `CC(=O)c1c(C)c2cnc(Nc3ccc(N4CCN(C(=O)COCCOCCOCCNc5cccc6c5C(=O)N(C5CCC(=O)NC5=O)C6=O)CC4)cn3)nc2n(C2CCCC2)c1=O` (centres unmarked) [compound 13], the chromatographic logD in data set [1] turned out to be 2.8. Also, the remaining activity at 0.1 µM at IKZF1 amounted to 1%; at CDK4 (setting [2]) it was 15%; at CDK6 (setting [3]), 7.7%. On CDK6 (0.1 μM, MM.1S cells), the “Selectivity ratio D CDK4/D CDK6” value is reported as 1.9.

Take `CC(=O)c1c(C)c2cnc(Nc3ccc(N4CCN(CCOCCOCCOc5cc(-c6scnc6C)ccc5CNC(=O)[C@@H]5C[C@@H](O)CN5C(=O)[C@H](C(C)C)N5Cc6ccccc6C5=O)CC4)cn3)nc2n(C2CCCC2)c1=O` [compound 29]: the chromatographic logD in data set [1] was 3.2. The remaining activity at 0.1 µM was over 95% on CDK4 (setting [2]) and 29% on CDK6 (setting [3]).

As to `CN[C@H](C)C(=O)N[C@H](C(=O)N1C[C@@H](Oc2cccc(OCCOCCOCCOCCN3CCN(c4ccc(Nc5ncc6c(C)c(C(C)=O)c(=O)n(C7CCCC7)c6n5)nc4)CC3)c2)C[C@H]1C(=O)N[C@@H]1CCCc2ccccc21)C1CCCCC1` [compound 36], the chromatographic logD in data set [1] came to 4.5. Also, the “D CDK4: remaining CDK4 levels” value on CDK4 (setting [4]) is on record as “failed to degrade”. For the same compound, the remaining activity at 0.1 µM on CDK4 (MM1.S, read-out: D CDK4: remaining CDK4 levels) was over 95%; on CDK6 (MM1.S, read-out: D CDK6: remaining CDK6 levels), over 95%. On CDK6 (setting [4]), the “D CDK6: remaining CDK6 levels” value was “failed to degrade”.

Consider `CC(=O)c1c(C)c2cnc(Nc3ccc(N4CCN(CCOCCOCCOCCOc5cc(-c6scnc6C)ccc5CNC(=O)[C@@H]5C[C@@H](O)CN5C(=O)[C@H](C(C)C)N5Cc6ccccc6C5=O)CC4)cn3)nc2n(C2CCCC2)c1=O` [compound 30], for which the chromatographic logD in data set [1] was found to be 3.1. Also, the remaining activity at 0.1 µM on CDK4 (setting [2]) turned out to be 94%; at CDK6 (setting [3]), 69%. Further, the “Selectivity ratio D CDK4/D CDK6” value at CDK6 (0.1 μM, MM.1S cells) is on record as 1.4.

Take `CC(=O)c1c(C)c2cnc(Nc3ccc(N4CCN(CCOCCOCCOc5cc(-c6scnc6C)ccc5CNC(=O)[C@@H]5C[C@@H](O)CN5C(=O)[C@@H](NC(=O)C5(C#N)CC5)C(C)(C)C)CC4)cn3)nc2n(C2CCCC2)c1=O` [compound 33]: the chromatographic logD in data set [1] stood at 3. Further, the figures for the remaining activity at 0.1 µM on CDK4 (setting [2]) and on CDK6 (setting [3]) were 65% and 1.4%, respectively. The “Selectivity ratio D CDK4/D CDK6” value on CDK6 (0.1 μM, MM.1S cells) was determined as 46.

Consider `CC(=O)c1c(C)c2cnc(Nc3ccc(N4CCN(C(=O)CCCCOCCCCCOCCCCCCNc5cccc6c5C(=O)N(C5CCC(=O)NC5=O)C6=O)CC4)cn3)nc2n(C2CCCC2)c1=O` (centres unmarked) [compound 16], for which, in data set [1], the chromatographic logD turned out to be 4.6. The results for the remaining activity at 0.1 µM on IKZF1, on CDK4 (setting [2]) and on CDK6 (setting [3]) were 6.7%, 76% and 32%, respectively. Moreover, the “Selectivity ratio D CDK4/D CDK6” value on CDK6 (0.1 μM, MM.1S cells) was 2.4.

Consider `CC(=O)c1c(C)c2cnc(Nc3ccc(N4CCN(CCCCCCOCCCCCOCCCCCOc5cc(-c6scnc6C)ccc5CNC(=O)[C@@H]5C[C@@H](O)CN5C(=O)[C@H](C(C)C)N5Cc6ccccc6C5=O)CC4)cn3)nc2n(C2CCCC2)c1=O` [compound 31], for which the chromatographic logD in data set [1] turned out to be 5.3. Besides, the figures for the remaining activity at 0.1 µM on CDK4 (setting [2]) and at CDK6 (setting [3]) were over 95% and 65%, respectively.

Take `CC(=O)c1c(C)c2cnc(Nc3ccc(N4CCN(C(=O)COCCOCCNc5cccc6c5C(=O)N(C5CCC(=O)NC5=O)C6=O)CC4)cn3)nc2n(C2CCCC2)c1=O` (centres unmarked) [compound 12]: the chromatographic logD in data set [1] is 2.8. In addition, the remaining activity at 0.1 µM at IKZF1 came to 0.8%; on CDK4 (setting [2]), 19%; at CDK6 (setting [3]) it was 8.4%. The “Selectivity ratio D CDK4/D CDK6” value at CDK6 (0.1 μM, MM.1S cells) is reported as 2.3.
